The results in this text go back to patent publication US12473289B2, “Heterocyclic compounds as delta-5 desaturase inhibitors and methods of use” (Amgen Inc., priority 2019, dated 2025).

Experiment [1] concerns the target Delta-5-Desaturase (D5D) (Homo sapiens (Human), UniProt O60427). Nature of the experiment: In vitro measurement of Delta-5-Desaturase inhibitory activity using DGLA-CoA and Arachidonyl-CoA mass spectrometric assays. In kind it is biochemical. Conditions: membrane preparations of D5D-overexpressing HEK293 6E cells; averaged over at least two independent runs. The procedure, abridged:
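Membranes from D5D-overexpressing HEK293 6E cells (10 μg/mL final) in Tris pH 7.5 with MgCl2, octyl glucoside and TCEP were mixed 1:1 with substrate solution (0.01 mM DGLA, 0.25 mM NADH, 0.25 mM ATP, 0.05 mM CoA) for 1 h at ambient temperature. RapidFire SPE-MS/MS MRM; IC50 by 4-parameter fit, ≥2 runs.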

In experiment [2] the target is Delta-5-Desaturase (D5D) (Mus musculus (Mouse), UniProt Q920L1). The experiment can be described thus: In vivo measurement of Delta-5-Desaturase inhibitory activity (plasma AA/DGLA ratio in DIO mice). The conditions noted are these: single oral dose 30 mg/kg, read-out: Average % D5D Inhibition expressed as Plasma Endogenous AA/DGLA Ratio. The procedure: In vivo Measurement of Delta-5-Desaturase Inhibitory Activity
Diet-induced obese (DIO; Jackson Laboratories strain #3800050) mice were used to screen for pharmacodynamic (PD) activity of test compounds. Generally, 14 to 24 week old DIO mice, were administered test compounds formulated in the vehicle of 2% hydroxypropyl methylcellulose (HPMC) and 1% Tween80. Animals were dosed on body weight by oral gavage with a single dose (30 mg/kg) for PD studies. Necropsy included plasma collection for PUFA analysis. 10 μl of plasma or standards diluted in surrogate matrix (65 g/l bovine serum albumin in Dulbecco's phosphate-buffered saline) were mixed with 10 μl of an internal standard (100 μM alpha-linolenic acid-d14 (ALA-d14, Cayman Chemical)) in a 96 well plate. 100 μl of 2N NAOH was added to the mixture for subsequent saponification at 65° C. for 1 hour. The mixture was then acidified with 50 μl of formic acid followed by two consecutive hexane extractions. Hexane (500 μl) was added and the mixture thoroughly mixed by vortexing, followed by centrifugation at 4,000 rpm for 15 min. The hexane phase was transferred to a new 1 ml 96 well plate and the remaining aqueous layer was extracted with hexane. The organic extracts were combined and the solvent was removed by placing the plate under nitrogen gas at 55° C. 250 μl of 90% methanol was added to the plate followed by vortexing for 2 minutes. 200 μl of the samples were transferred to a new 96 well polypropylene plate. The samples were analyzed on a LC-MS/MS for the following PUFAs: arachidonic acid (AA), dihomo-gamma-linolenic acid (DGLA), with ALA-d14 as the internal standard. Description of the LC-MS/MS method: 5 μl of sample was injected onto a Poroshell 120 EC-C18 3.0×50 mm, 1.9 μm id column. […] The PUFA peak areas were quantified by using the SCIEX Analyst software. […] The relative decrease of the AA/DGLA ratio of the test compound administered group relative to the vehicle administered group was calculated and used as an index for the degree of D5D inhibition.
The results presented in Table 27 were obtained using certain compounds described herein in the in vivo protocol described above.

Sequence of Delta-5-Desaturase (D5D) (Homo sapiens (Human), UniProt O60427) (O60427 whole entry, species assumed): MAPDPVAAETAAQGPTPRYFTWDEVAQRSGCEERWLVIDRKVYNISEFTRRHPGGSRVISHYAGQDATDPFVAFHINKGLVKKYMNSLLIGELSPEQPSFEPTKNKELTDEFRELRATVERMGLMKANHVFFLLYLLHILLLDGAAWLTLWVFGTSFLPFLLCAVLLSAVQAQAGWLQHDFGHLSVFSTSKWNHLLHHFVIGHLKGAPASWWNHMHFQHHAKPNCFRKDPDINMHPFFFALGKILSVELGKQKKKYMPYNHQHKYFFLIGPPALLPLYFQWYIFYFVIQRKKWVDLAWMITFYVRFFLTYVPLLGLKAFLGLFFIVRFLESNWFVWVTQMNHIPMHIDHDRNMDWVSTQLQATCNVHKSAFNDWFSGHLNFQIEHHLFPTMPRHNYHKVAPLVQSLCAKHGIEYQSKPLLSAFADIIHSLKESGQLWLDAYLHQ
Sequence of Delta-5-Desaturase (D5D) (Mus musculus (Mouse), UniProt Q920L1) (Q920L1 whole entry): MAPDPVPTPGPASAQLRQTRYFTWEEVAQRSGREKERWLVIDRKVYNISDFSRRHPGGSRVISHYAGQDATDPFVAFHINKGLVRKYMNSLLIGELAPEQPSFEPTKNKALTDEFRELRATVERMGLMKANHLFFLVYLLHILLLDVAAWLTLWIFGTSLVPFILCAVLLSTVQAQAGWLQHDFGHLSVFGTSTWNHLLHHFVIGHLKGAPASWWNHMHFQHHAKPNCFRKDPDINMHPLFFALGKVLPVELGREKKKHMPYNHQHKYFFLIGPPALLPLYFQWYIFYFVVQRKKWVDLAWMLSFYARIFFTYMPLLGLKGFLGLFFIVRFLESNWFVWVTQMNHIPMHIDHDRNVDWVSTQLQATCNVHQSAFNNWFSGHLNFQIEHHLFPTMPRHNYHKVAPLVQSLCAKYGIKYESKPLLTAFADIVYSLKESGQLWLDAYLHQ

For orientation: IC50 means the concentration that gives 50% inhibition. The low end stands for inhibition by little substance, the high end for a need for much substance. Compound `Nc1ccn2c(=O)c(-c3cnn(CC(F)(F)C(F)(F)F)c3)c(C(F)(F)F)nc2c1` [Example 6-1, 8-Amino-3-(1-(2,2,3,3,3-pentafluoropropyl)-1H-pyrazol-4-yl)-2-(trifluoromethyl)-4H-pyrido[1,2-a]pyrimidin-4-one] returned an IC50 at Delta-5-Desaturase (D5D) [1] of 14.8 nM. Besides, the inhibition in vivo at 30 mg/kg on Delta-5-Desaturase (D5D) [2] was 51%.

`Nc1ccn2c(=O)c(-c3ccc(OCC(F)(F)F)cc3)c(C(F)(F)F)nc2n1` [Example 14-2, 8-amino-3-(4-(2,2,2-trifluoroethoxy)phenyl)-2-(trifluoromethyl)-4H-pyrimido[1,2-a]pyrimidin-4-one] returned a concentration for half-maximal inhibition (IC50) on Delta-5-Desaturase (D5D) [1] of 35.7 nM. Also, the inhibition in vivo at 30 mg/kg at Delta-5-Desaturase (D5D) [2] was found to be 73%.

For `COc1ccn2c(=O)c(-c3ccc(OCC(F)F)cc3F)c(C(F)(F)F)nc2c1` [Example 1-41, 3-(4-(2,2-difluoroethoxy)-2-fluorophenyl)-8-methoxy-2-(trifluoromethyl)-4H-pyrido[1,2-a]pyrimidin-4-one], inhibition at Delta-5-Desaturase (D5D) [1] was half-maximal at 24.9 nM (IC50). On Delta-5-Desaturase (D5D) [2], the inhibition in vivo at 30 mg/kg amounted to 63%.

At Delta-5-Desaturase (D5D) [1], `O=c1c(-c2cnn(CC(F)(F)C(F)(F)F)c2)c(C(F)(F)F)nc2cc(OCF)ccn12` [Example 45, 8-(Fluoromethoxy)-3-[1-(2,2,3,3,3-pentafluoropropyl)-1H-pyrazol-4-yl]-2-(trifluoromethyl)-4H-pyrido[1,2-a]pyrimidin-4-one] yielded an IC50 of 10.1 nM. On Delta-5-Desaturase (D5D) [2], the inhibition in vivo at 30 mg/kg stood at 62%.

Turning to `CNc1ccn2c(=O)c(-c3ccc(OCC(F)(F)F)cc3)c(C(F)(F)F)nc2c1` [Example 1-29, 8-(methylamino)-3-(4-(2,2,2-trifluoroethoxy)phenyl)-2-(trifluoromethyl)-4H-pyrido[1,2-a]pyrimidin-4-one], the IC50 on Delta-5-Desaturase (D5D) [1] was determined as 7 nM. Moreover, the inhibition in vivo at 30 mg/kg at Delta-5-Desaturase (D5D) [2] is 77%.

In the case of `[2H]C([2H])([2H])Oc1ccn2c(=O)c(-c3ccc(OCC(F)(F)F)cc3)c(C(F)(F)F)nc2c1` [Example 11-2, 8-(methyloxy-d3)-3-(4-(2,2,2-trifluoroethoxy)phenyl)-2-(trifluoromethyl)-4H-pyrido[1,2-a]pyrimidin-4-one], the IC50 against Delta-5-Desaturase (D5D) [1] turned out to be 4 nM. In addition, the inhibition in vivo at 30 mg/kg at Delta-5-Desaturase (D5D) [2] amounted to 79%.

On to `O=c1c(-c2ccc(OCC(F)(F)F)cc2)c(C(F)(F)F)nc2cc(CO)ccn12` [Example 13-3, 8-(hydroxymethyl)-3-(4-(2,2,2-trifluoroethoxy)phenyl)-2-(trifluoromethyl)-4H-pyrido[1,2-a]pyrimidin-4-one], for which half-maximal inhibition against Delta-5-Desaturase (D5D) [1] (IC50) required 5.6 nM. The inhibition in vivo at 30 mg/kg at Delta-5-Desaturase (D5D) [2] was 77%.

`COc1ccn2c(=O)c(-c3ccc(OCC4CC4)cc3)c(C(F)(F)F)nc2c1` [Example 1-8, 3-(4-(cyclopropylmethoxy)phenyl)-8-methoxy-2-(trifluoromethyl)-4H-pyrido[1,2-a]pyrimidin-4-one] displayed an IC50 on Delta-5-Desaturase (D5D) [1] of 5.1 nM. For the same compound, the inhibition in vivo at 30 mg/kg at Delta-5-Desaturase (D5D) [2] worked out at 62%.

For the compound `COc1ccn2c(=O)c(-c3ccc(OCC(F)(F)F)cc3)c(C3CC3)nc2c1` [Example 1-62, 2-cyclopropyl-8-methoxy-3-(4-(2,2,2-trifluoroethoxy)phenyl)-4H-pyrido[1,2-a]pyrimidin-4-one], half-maximal inhibition on Delta-5-Desaturase (D5D) [1] (IC50) was put at 10.9 nM. The inhibition in vivo at 30 mg/kg at Delta-5-Desaturase (D5D) [2] came out at 56%.

On to `COc1ccn2c(=O)c(-c3ccc(O[C@@H](C)C#N)cc3)c(C(F)(F)F)nc2c1` [Example 8-9, (2S)-2-(4-(8-methoxy-4-oxo-2-(trifluoromethyl)-4H-pyrido[1,2-a]pyrimidin-3-yl)phenoxy)propanenitrile], for which the half-maximal inhibitory concentration (IC50) against Delta-5-Desaturase (D5D) [1] was determined as 11.6 nM. Moreover, at Delta-5-Desaturase (D5D) [2], the inhibition in vivo at 30 mg/kg turned out to be 79%.

For the compound `Nc1ccn2c(=O)c(-c3ccc(OCC(F)(F)F)cc3)c(C(F)(F)F)nc2c1` [Example 6-2, 8-amino-3-(4-(2,2,2-trifluoroeth-oxy)phenyl)-2-(trifluoromethyl)-4H-pyrido[1,2-a]pyrimidin-4-one], the inhibition in vivo at 30 mg/kg at Delta-5-Desaturase (D5D) [2] was 66%.

As for `COc1ccn2c(=O)c(-c3ccc(OCC(F)(F)F)cc3F)c(C(F)(F)F)nc2c1` [Example 1-20, 3-(2-fluoro-4-(2,2,2-trifluoroethoxy)phenyl)-8-methoxy-2-(trifluoromethyl)-4H-pyrido[1,2-a]pyrimidin-4-one], the IC50 at Delta-5-Desaturase (D5D) [1] amounted to 8.9 nM. Moreover, the inhibition in vivo at 30 mg/kg at Delta-5-Desaturase (D5D) [2] was found to be 78%.

Compound `O=c1c(-c2ccc(OCC(F)(F)F)cc2)c(C(F)(F)F)nc2ccccn12` [Example 1-42, 3-(4-(2,2,2-trifluoroethoxy)phenyl)-2-(trifluoromethyl)-4H-pyrido[1,2-a]pyrimidin-4-one] showed an IC50 on Delta-5-Desaturase (D5D) [1] of 10.4 nM. In addition, the inhibition in vivo at 30 mg/kg at Delta-5-Desaturase (D5D) [2] is 64%.

As for `COc1ccn2c(=O)c(-c3ccc(OCC(F)(F)F)c(F)c3)c(C(F)(F)F)nc2c1` [Example 1-48, 3-(3-fluoro-4-(2,2,2-trifluoroethoxy)phenyl)-8-methoxy-(trifluoromethyl)-4H-pyrido[1,2-a]pyrimidin-4-one], 5.1 nM corresponded to half-maximal inhibition against Delta-5-Desaturase (D5D) [1] (IC50). Further, the inhibition in vivo at 30 mg/kg on Delta-5-Desaturase (D5D) [2] came out at 66%.

Regarding `[2H]C([2H])([2H])Oc1ccn2c(=O)c(-c3cnn(CC(F)(F)C(F)(F)F)c3)c(C(F)(F)F)nc2n1` [Example 3-2, 8-(methyloxy-d3)-3-(1-(2,2,3,3,3-pentafluoropropyl)-1H-pyrazol-4-yl)-2-(trifluoromethyl)-4H-pyrimido[1,2-a]pyrimidin-4-one], the IC50 against Delta-5-Desaturase (D5D) [1] was determined as 34.2 nM. In addition, the inhibition in vivo at 30 mg/kg on Delta-5-Desaturase (D5D) [2] is 67%.

For `COc1cc2nc(C(F)(F)F)c(-c3cnn(CC(F)(F)C(F)(F)F)c3)c(=O)n2cc1F` [Example 33, 7-Fluoro-8-methoxy-3-[1-(2,2,3,3,3-pentafluoropropyl)-1H-pyrazol-4-yl]-2-(trifluoromethyl)-4H-pyrido[1,2-a]pyrimidin-4-one], inhibition against Delta-5-Desaturase (D5D) [1] was half-maximal at 20.9 nM (IC50). In addition, on Delta-5-Desaturase (D5D) [2], the inhibition in vivo at 30 mg/kg was found to be 71%.

`COc1ccn2c(=O)c(-c3ccc(OCC(F)(F)F)cc3)c(C(F)F)nc2c1` [Example 1-15, 2-(difluoromethyl)-8-methoxy-3-(4-(2,2,2-trifluoroethoxy)phenyl)-4H-pyrido[1,2-a]pyrimidin-4-one] yielded an IC50 on Delta-5-Desaturase (D5D) [1] of 12.4 nM. The inhibition in vivo at 30 mg/kg on Delta-5-Desaturase (D5D) [2] was 70%.

In the case of `COc1ccn2c(=O)c(-c3cnn(CC(C)(F)F)c3)c(C(F)(F)F)nc2c1` [Example 1-39, 3-(1-(2,2-difluoropropyl)-1H-pyrazol-4-yl)-8-methoxy-2-(trifluoromethyl)-4H-pyrido[1,2-a]pyrimidin-4-one], on Delta-5-Desaturase (D5D) [1], the IC50 was 42.2 nM. On Delta-5-Desaturase (D5D) [2], the inhibition in vivo at 30 mg/kg worked out at 62%.

For the compound `COc1ccn2c(=O)c(-c3ccc(OC(C)(C)C#N)cc3)c(C(F)(F)F)nc2c1` [Example 24, 2-(4-(8-Methoxy-4-oxo-2-(trifluoromethyl)-4H-pyrido[1,2-a]pyrimidin-3-yl)phenoxy)-2-methylpropanenitrile], at Delta-5-Desaturase (D5D) [1], the IC50 was determined as 28.9 nM. Further, the inhibition in vivo at 30 mg/kg on Delta-5-Desaturase (D5D) [2] was found to be 70%.

`COc1ccn2c(=O)c(-c3ccc(OCC(F)(F)F)nc3)c(C(F)(F)F)nc2c1` [Example 7-4] gave an IC50 at Delta-5-Desaturase (D5D) [1] of 27 nM. Also, the inhibition in vivo at 30 mg/kg at Delta-5-Desaturase (D5D) [2] worked out at 60%.

Take `COc1ccn2c(=O)c(-c3ccc(OC(F)(F)F)cc3F)c(C(F)(F)F)nc2c1` [Example 1-9, 3-(2-fluoro-4-(trifluoromethoxy)phenyl)-8-methoxy-2-(trifluoromethyl)-4H-pyrido[1,2-a]pyrimidin-4-one]: the inhibition in vivo at 30 mg/kg at Delta-5-Desaturase (D5D) [2] came to 35%.

At Delta-5-Desaturase (D5D) [1], `COc1ccn2c(=O)c(-c3ccc(OCC(C)(F)F)cc3)c(C(F)(F)F)nc2c1` [Example 9-2, 3-(4-(2,2-difluoropropoxy)phenyl)-8-methoxy-2-(trifluoromethyl)-4H-pyrido[1,2-a]pyrimidin-4-one] registered an IC50 of 11.3 nM. Further, at Delta-5-Desaturase (D5D) [2], the inhibition in vivo at 30 mg/kg worked out at 67%.

In the case of `COc1ccn2c(=O)c(-c3cc4ccccc4o3)c(C(F)(F)F)nc2c1` [Example 1-7, 3-(1-benzofuran-2-yl)-8-methoxy-2-(trifluoromethyl)-4H-pyrido[1,2-a]pyrimidin-4-one], the IC50 at Delta-5-Desaturase (D5D) [1] was determined as 85.2 nM.

With `Cc1cnn2c(=O)c(-c3cnc(OCC(F)(F)F)nc3)c(C(F)(F)F)nc2c1` [Example 39-48, 8-methyl-3-[2-(2,2,2-trifluoroethoxy)pyrimidin-5-yl]-2-(trifluoromethyl)-4H-pyrimido[1,2-b]pyridazin-4-one], it took 518 nM to reach half-maximal inhibition against Delta-5-Desaturase (D5D) [1] (IC50).
